Experimental data reported in patent publication US20260028354A1, “TETRAHYDRONAPHTHALENE DERIVATIVES AS ESTROGEN RECEPTOR DEGRADERS” (REGENT OF THE UNIVERSITY OF MICHIGAN, priority 2022, published 2026).
Read-outs that look alike come from different tables or passages of the source.

Legend:
MCF-7 cells = test: CellTiter-Glo (CTG) cell proliferation assay in MCF-7 cells; assay type: cell-based; conditions: Homo sapiens, MCF7, 144 h, MCF-7 cell proliferation, Day 6
From the text: CellTiter-Glo® (CTG) Assays in MCF-7 and T47D Cell Lines.
In vitro Assay: MCF-7 and T47D CTG assay

ER in MCF-7 cells = ER in MCF-7 cells (Homo sapiens (Human), UniProt P03372); test: In-cell Western (ICW) ER degradation assay in MCF-7 cells; assay type: cell-based; conditions: for DC50: MCF-7, ER degradation, read-out: MCF7 DC50
ER in MCF-7 cells, sequence (P03372 whole entry): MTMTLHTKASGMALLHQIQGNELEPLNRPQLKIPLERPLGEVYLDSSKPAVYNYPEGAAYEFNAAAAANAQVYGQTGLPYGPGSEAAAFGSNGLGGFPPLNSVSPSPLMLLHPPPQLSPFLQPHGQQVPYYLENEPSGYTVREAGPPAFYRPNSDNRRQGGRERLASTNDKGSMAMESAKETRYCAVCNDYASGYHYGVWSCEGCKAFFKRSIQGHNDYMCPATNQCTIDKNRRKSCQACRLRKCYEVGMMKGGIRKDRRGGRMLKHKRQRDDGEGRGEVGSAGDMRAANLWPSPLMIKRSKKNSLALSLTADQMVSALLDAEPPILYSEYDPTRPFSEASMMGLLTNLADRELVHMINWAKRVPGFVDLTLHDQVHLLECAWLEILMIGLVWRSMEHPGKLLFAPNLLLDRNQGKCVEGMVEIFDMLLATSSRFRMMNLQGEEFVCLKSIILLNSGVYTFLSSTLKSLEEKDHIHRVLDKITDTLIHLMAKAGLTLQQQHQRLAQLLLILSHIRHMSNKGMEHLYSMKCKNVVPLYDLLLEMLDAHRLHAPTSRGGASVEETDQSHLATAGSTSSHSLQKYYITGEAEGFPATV

[1] = MCF7, MCF-7, maximal ER degradation, 16 hrs treatment, read-out: MCF7 Dmax
[2] = MCF7, read-out: MCF7 Dmax, MCF-7, maximal ER degradation, 16 hrs treatment

Dmax (ER in MCF-7 cells; [1]) [%] | SMILES | IC50 (MCF-7 cells) [nM] | DC50 (ER in MCF-7 cells; 16 hrs treatment) [nM] | Dmax (ER in MCF-7 cells; [2]) [%]
> 75 | O=C1CC[C@H](N2Cc3c(ccc4c3OC[C@H]3CN(CC5CC6(CCN(c7cnc(C8c9ccc(O)cc9CCC8c8ccccc8)cn7)CC6)C5)CCN43)C2=O)C(=O)N1 (stereo partly drawn) [Compound A195, (3S)-3-((5aR)-7-((7-(5-(6-hydroxy-2-phenyl-1,2,3,4-tetra-hydronaphthalen-1-yl)pyrazin-2-yl)-7-azaspiro[3.5]nonan-2-yl)methyl)-1-oxo-1,3,5,5a,6,7,8,9-octahydro-2H-pyrazino [1′,2′:4,5][1,4]oxazino[2,3-e]isoindol-2-yl)piperidine-2,6-dione] | > 100 | < 1 | –
– | COc1cc(N2CCC3(CC[C@@H](CN4CCC5(CC4)COc4c5cc(C)c5c4CN([C@H]4CCC(=O)NC4=O)C5=O)CO3)CC2)c(F)cc1[C@@H]1c2ccc(O)cc2CC[C@@H]1c1ccccc1 [Compound A227, (S)-3-(1′-(((S)-9-(2-fluoro-4-((1S,2S)-6-hydroxy-2-phenyl-1,2,3,4-tetrahydronaphthalen-1-yl)-5-methoxyphenyl)-1-oxa-9-azaspiro[5.5]undecan-3-yl)methyl)-5-methyl-6-oxo-6,8-dihydro-2H,7H-spiro[furo[2,3-e]isoindole-3,4′-piperidin]-7-yl)piperidine-2,6-dione] | < 10 | < 1 | > 75
– | COc1cc(N2CCC3(CC[C@H](CN4CCC5(CC4)COc4c5cc(C)c5c4CN([C@H]4CCC(=O)NC4=O)C5=O)CO3)CC2)c(F)cc1[C@@H]1c2ccc(O)cc2CC[C@@H]1c1ccccc1 [Compound A230, (S)-3-(1′-(((R)-9-(2-fluoro-4-((1S,2S)-6-hydroxy-2-phenyl-1,2,3,4-tetrahydronaphthalen-1-yl)-5-methoxyphenyl)-1-oxa-9-azaspiro[5.5]undecan-3-yl)methyl)-5-methyl-6-oxo-6,8-dihydro-2H,7H-spiro[furo[2,3-e]isoindole-3,4′-piperidin]-7-yl)piperidine-2,6-dione] | < 10 | < 1 | > 75
> 75 | COc1c([C@@H]2c3ccc(O)cc3CC[C@@H]2c2ccccc2)ccc(N2CCC3(CC2)CC(CN2CCN4c5ccc6c(c5OC[C@H]4C2)CN([C@H]2CCC(=O)NC2=O)C6=O)C3)c1F [Compound A196, (S)-3-((R)-7-((7-(2-fluoro-4-((1S,2S)-6-hydroxy-2-phenyl-1,2,3,4-tetrahydronaphthalen-1-yl)-3-methoxyphenyl)-7-aza-spiro[3.5]nonan-2-yl)methyl)-1-oxo-1,3,5,5a,6,7,8,9-octa-hydro-2H-pyrazino[1′,2′:4,5] [1,4]oxazino[2,3-e]isoindol-2-yl)piperidine-2,6-dione] | < 10 | < 1 | –
– | COc1cc(N2CC3(CCC(CN4CCC5(CC4)COc4nc(C(=O)N[C@H]6CCC(=O)NC6=O)ccc45)CC3)C2)c(F)cc1[C@@H]1c2ccc(O)cc2CC[C@@H]1c1ccccc1 [Compound A179, N-((S)-2,6-dioxopiperidin-3-yl)-1′-((2-(2-fluoro-4-((1S,2S)-6-hydroxy-2-phenyl-1,2,3,4-tetrahydronaphthalen-1-yl)-5-methoxyphenyl)-2-azaspiro [3.5]nonan-7-yl)methyl)-2H-spiro[furo[2,3-b]pyridine-3,4′-piperidine]-6-carboxamide] | > 100 | < 1 | > 75
> 75 | O=C1CC[C@H](N2Cc3cc4c(cc3C2=O)OC[C@@H]2CN(CC3CC5(CCN(c6cnc(C7c8ccc(O)cc8CCC7c7ccccc7)cn6)CC5)C3)CCN42)C(=O)N1 (stereo partly drawn) [Compound A194, (3S)-3-((4aS)-3-((7-(5-(6-hydroxy-2-phenyl-1,2,3,4-tetra-hydronaphthalen-1-yl)pyrazin-2-yl)-7-azaspiro[3.5]nonan-2-yl)methyl)-8-oxo-1,2,3,4,4a,5,8,10-octahydro-9H-pyrazino [1′,2′:4,5][1,4]oxazino[2,3-f]isoindol-9-yl)piperidine-2,6-dione] | > 100 | 1 to 10 | –
– | COc1cc(N2CCC3(CC2)CC(CN2CCC4(CC2)COc2c4cc4c(c2Cl)C(=O)N([C@H]2CCC(=O)NC2=O)C4)C3)c(F)cc1[C@@H]1c2ccc(O)cc2CC[C@@H]1c1ccccc1 [Compound A218, (S)-3-(8-chloro-1′-((7-(2-fluoro-4-((1S,2S)-6-hydroxy-2-phenyl-1,2,3,4-tetrahydro-naphthalen-1-yl)-5-methoxy-phenyl)-7-azaspiro[3.5]nonan-2-yl)methyl)-7-oxo-5,7-dihydro-2H,6H-spiro[furo[2,3-f]isoindole-3,4′-piperidin]-6-yl)piperidine-2,6-dione] | < 10 | < 1 | > 75
– | COc1cc(N2CCC3(CC[C@@H](CN4CCC5(CC4)COc4c5cc(Cl)c5c4CN([C@H]4CCC(=O)NC4=O)C5=O)CO3)CC2)c(F)cc1[C@@H]1c2ccc(O)cc2CC[C@@H]1c1ccccc1 [Compound A234, (S)-3-(5-chloro-1′-(((S)-9-(2-fluoro-4-((1S,2S)-6-hydroxy-2-phenyl-1,2,3,4-tetrahydronaphthalen-1-yl)-5-methoxyphenyl)-1-oxa-9-azaspiro[5.5]undecan-3-yl)methyl)-6-oxo-6,8-dihydro-2H,7H-spiro[furo[2,3-e]isoindole-3,4′-piperidin]-7-yl)piperidine-2,6-dione] | < 10 | < 1 | > 75
– | COc1cc(N2CC(CCN3CCC4(CC3)COc3cc5c(cc34)CN([C@H]3CCC(=O)NC3=O)C5=O)C2)c(F)cc1[C@@H]1c2ccc(O)cc2CC[C@@H]1c1ccccc1 [Compound A205, (S)-3-(1′-(2-(1-(2-fluoro-4-((1S,2S)-6-hydroxy-2-phenyl-1,2,3,4-tetrahydronaphthalen-1-yl)-5-methoxyphenyl)-azet-idin-3-yl)ethyl)-7-oxo-5,7-dihydro-2H,6H-spiro[furo[2,3-f]isoindole-3,4′-piperidin]-6-yl)piperidine-2,6-dione] | > 100 | 1 to 10 | 25 to 50
> 75 | COc1cc(N2CC3(CC(CN4CCN5c6ccc7c(c6OC[C@H]5C4)CN([C@H]4CCC(=O)NC4=O)C7=O)C3)C2)c(F)cc1[C@@H]1c2ccc(O)cc2CC[C@@H]1c1ccccc1 [Compound A185, (S)-3-((R)-7-((2-(2-fluoro-4-((1S,2S)-6-hydroxy-2-phenyl-1,2,3,4-tetrahydronaphthalen-1-yl)-5-methoxyphenyl)-2-aza-spiro[3.3]heptan-6-yl)methyl)-1-oxo-1,3,5,5a,6,7,8,9-octa-hydro-2H-pyrazino[1′,2′:4,5] [1,4]oxazino[2,3-e]isoindol-2-yl)piperidine-2,6-dione] | > 100 | < 1 | –
– | COc1c([C@@H]2c3ccc(O)cc3CC[C@@H]2c2ccccc2)ccc(N2CCC(CN3CCC4(CC3)COc3cc5c(cc34)CN([C@H]3CCC(=O)NC3=O)C5=O)CC2)c1F [Compound A191, (S)-3-(1′-((1-(2-fluoro-4-((1S, 2S)-6-hydroxy-2-phenyl-1,2,3,4-tetrahydronaphthalen-1-yl)-3-methoxyphenyl)piper-idin-4-yl)methyl)-7-oxo-5,7-dihydro-2H,6H-spiro[furo[2,3-f]isoindole-3,4′-piperidin]-6-yl)piperidine-2,6-dione] | 10 to 100 | < 1 | 50 to 75
– | Cc1cc2c(c3c1C(=O)N([C@H]1CCC(=O)NC1=O)C3)OCC21CCN(C[C@H]2CCC3(CCN(c4ccc([C@@H]5c6ccc(O)cc6CC[C@@H]5c5ccccc5)cc4)CC3)OC2)CC1 [Compound A210, (S)-3-(1′-(((R)-9-(4-((1R,2S)-6-hydroxy-2-phenyl-1,2,3,4-tetrahydronaphthalen-1-yl)phenyl)-1-oxa-9-azaspiro[5.5]undecan-3-yl)methyl)-5-methyl-6-oxo-6,8-dihydro-2H,7H-spiro[furo[2,3-e]isoindole-3,4′-piperidin]-7-yl)piperidine-2,6-dione] | < 10 | < 1 | > 75
– | O=C1CC[C@H](N2Cc3c4c(cc(Cl)c3C2=O)C2(CCN(C[C@@H]3CCC5(CCN(c6ccc([C@@H]7c8ccc(O)cc8CC[C@@H]7c7ccccc7)cc6)CC5)OC3)CC2)CO4)C(=O)N1 [Compound A233, (S)-3-(5-chloro-1′-(((S)-9-(4-((1R,2S)-6-hydroxy-2-phenyl-1,2,3,4-tetrahydronaphthalen-1-yl)phenyl)-1-oxa-9-azaspiro[5.5]undecan-3-yl)methyl)-6-oxo-6,8-dihydro-2H,7H-spiro[furo[2,3-e]isoindole-3,4′-piperidin]-7-yl)piperidine-2,6-dione] | < 10 | < 1 | > 75
– | O=C1CC[C@H](N2Cc3c(ccc4c3OCC43CCN(CC4CC5(CCN(c6cnc(C7c8ccc(O)cc8CCC7c7ccccc7)cn6)CC5)C4)CC3)C2=O)C(=O)N1 (stereo partly drawn) [Compound A201, (3S)-3-(1′-((7-(5-(6-hydroxy-2-phenyl-1,2,3,4-tetrahydro-naphthalen-1-yl)pyrazin-2-yl)-7-azaspiro[3.5]nonan-2-yl)-methyl)-6-oxo-6,8-dihydro-2H, 7H-spiro[furo[2,3-e]isoindole-3,4′-piperidin]-7-yl)piperidine-2,6-dione] | > 100 | < 1 | 50 to 75
50 to 75 | COc1cc(N2CC(CCN3CCN4c5ccc6c(c5OC[C@H]4C3)CN([C@H]3CCC(=O)NC3=O)C6=O)C2)c(F)cc1[C@@H]1c2ccc(O)cc2CC[C@@H]1c1ccccc1 [Compound A204, (S)-3-((R)-7-(2-(1-(2-fluoro-4-((1S,2S)-6-hydroxy-2-phenyl-1,2,3,4-tetrahydronaphthalen-1-yl)-5-methoxyphenyl)azet-idin-3-yl)ethyl)-1-oxo-1,3,5,5a, 6,7,8,9-octahydro-2H-pyrazino [1′,2′:4,5][1,4]oxazino[2,3-e]isoindol-2-yl)piperidine-2,6-dione] | > 100 | 1 to 10 | –
